Columns and labels:
[1] = system: white blood cells present in human whole blood samples; assay: R848 TLR agonist (NK cell stimulatory) activity after E-beam irradiation (IFN-γ release in whole blood, ELISA); type: cell-based; details: for Protection of R848 stimulatory activity against E-beam (FIG. 6): 10 mM Cys or 3.0 mM G-SH, E-beam treated; for Protective effect on R848 activity, titration of radioprotectant (FIG. 7): 25 kGy E-beam, radioprotectant 1.0 to 10 mM
Experimental: R848 (resiquimod, CAS 144875-48-9) is a toll-like receptor (TLR) agonist which can stimulate biological responses by natural killer (NK) cells, and its activity can be measured in the […] tubes (QIAGEN, Inc., Germantown, Md.) QFN whole blood culture system. […] Following incubation with the R848 samples in the QFN tubes, whole blood sample processing, plasma harvesting and IFN-γ ELISA were performed according to the QuantiFERON®-TB Gold Plus package insert (QFN-TB Gold Plus, QIAGEN, Inc., Germantown, Md.) except that the plasma samples were diluted 1:10 in ELISA kit Green Diluent immediately before testing on 8-point standard curves.

[2] = system: white blood cells present in human whole blood samples; assay: QFM (anti-CD3 + R848) stimulatory activity after E-beam irradiation (IFN-γ release in whole blood, ELISA); type: cell-based; details: for Protection of stimulatory activities of anti-CD3 and R848 against E-beam (FIG. 8): 10 mM Cys or 3.0 mM G-SH, E-beam irradiated; for Protective effect on combined anti-CD3 and R848 activity, titration of radioprotectant (FIG. 9): 25 kGy E-beam, radioprotectant 1.0 to 10 mM
Experimental: Following incubation with the QFM samples in the QFN tubes, whole blood sample processing, plasma harvesting and IFN-γ ELISA were performed according to the QuantiFERON®-TB Gold Plus package insert (QFN-TB Gold Plus, QIAGEN, Inc., Germantown, Md.) except that the plasma samples were diluted 1:10 in ELISA kit Green Diluent immediately before testing on 8-point standard curves.

[3] = system: white blood cells present in human whole blood samples; assay: Pokeweed mitogen activity after E-beam irradiation (IFN-γ release in whole blood, ELISA); type: cell-based; details: for Protection of PWM stimulatory activity against E-beam (FIG. 10): 10 mM Cys or 3.0 mM G-SH, E-beam irradiated; for Protective effect on PWM activity, titration of radioprotectant (FIG. 11): 25 kGy E-beam, radioprotectant 1.0 to 10 mM
Experimental: Pokeweed Mitogen (PWM) samples were dissolved in DPBS at a concentration of 33.3 μg/mL and treated with various doses of E-beam irradiation in the presence or absence of 10 mM cysteine (Cys) or 3 mM glutathione (G-SH). The treated PWM samples were tested for their biological activity (ability to elicit IFNγ release during an in vitro incubation) on white blood cells present in human whole blood samples, collected from a group of six randomly selected donors, using 1.0 μg of PWM per mL of whole blood in QFN Nil tubes. Following incubation with the PWM samples in the QFN tubes, whole blood sample processing, plasma harvesting and IFN-γ ELISA were performed according to the QuantiFERON®-TB Gold Plus package insert (QFN-TB Gold Plus, QIAGEN, Inc., Germantown, Md.) except that the plasma samples were diluted 1:10 in ELISA kit Green Diluent immediately before testing on 8-point standard curves.

[4] = system: white blood cells present in human whole blood samples; assay: Concanavalin A activity after E-beam irradiation (IFN-γ release in whole blood, ELISA); type: cell-based; details: for Protection of ConA stimulatory activity against E-beam (FIG. 12): 10 mM Cys or 3.0 mM G-SH, E-beam irradiated; for Protective effect on ConA activity, titration of radioprotectant (FIG. 13): 25 kGy E-beam, radioprotectant 1.0 to 10 mM
[5] = system: T-cells present in a whole human blood sample; assay: Anti-CD3 antibody T-cell stimulatory activity after E-beam irradiation (IFN-γ secretion in whole blood, ELISA); type: cell-based; details: for Protection of anti-CD3 antibody stimulatory activity against E-beam (FIG. 4): 10 mM Cys or 3.0 mM G-SH in DPBS, E-beam doses up to 25 kGy; for Protective effect on anti-CD3 activity, titration of radioprotectant (FIG. 5): 25 kGy E-beam, radioprotectant 1.0 to 10 mM
Experimental: Anti-CD3 antibody samples were dissolved in Dulbecco's phosphate-buffered saline (DPBS) and diluted to a concentration of 66.7 μg/mL, then exposed to various doses of E-beam irradiation in the presence or absence of 10 mM cysteine (Cys) or 3 mM glutathione (G-SH). The treated antibody samples were tested for their T-cell stimulatory activity by determining their ability to induce interferon-gamma (IFNγ) secretion by T-cells present in a whole human blood sample obtained from a group of six randomly selected donors, using 0.10 μg of anti-CD3 antibody per mL of whole blood in QuantiFERON® (QFN) Nil tubes (QIAGEN, Inc., Germantown, Md.). Following the incubation of the whole blood samples with the anti-CD3 antibody in the QFN Nil tubes, blood processing, plasma harvesting and IFN-γ detection by enzyme-linked immunosorbent assay (ELISA) were performed according to the manufacturer's instructions as found in the QuantiFERON®-TB Gold Plus package insert (QFN-TB Gold Plus, QIAGEN, Inc., Germantown, Md.) except that the plasma samples were diluted 1 to 10 in ELISA kit Green Diluent immediately before testing on 8-point standard curves.

whole blood samples [6] = assay: Mitogenic activity of PHA-P formulation with radioprotectant additives, with or without E-Beam (IFN-γ secretion, QuantiFERON ELISA); type: cell-based, human; details: for Group Mean Percentage of Mitogenic Activity: additive 5.0 mM, vs untreated control without additives; for Group Mean Percentage of Mitogenic Activity / Concentration-dependent protection of PHA-P mitogenic activity (FIG. 1) / PHA-P Formulation Potency with Additives: 6 donors; for Concentration-dependent protection of PHA-P mitogenic activity (FIG. 1): E-beam 25 kGy in solution, cysteine 1.0-50 mM, melatonin 0.2-10 mM; for PHA mitogenic activity, % of PHA control formulation (FIG. 1): E-Beam 25 kGy, control without additive and without sterilization; for PHA-P Formulation Potency with Additives: no irradiation, vs same formulation without additives (100%)
Experimental: Cysteine (closed circles) and melatonin (open circles) were dissolved in the same PHA-P formulation to various final concentrations. The mitogenic activities were determined by measuring IFN-γ secretion in whole blood samples from six blood donors using QuantiFERON® ELISA according to the manufacturer's instructions (QIAGEN, Inc., Germantown, Md.). Group mean percentages of mitogenic activity over controls (PHA-P alone without any additives) are presented.
L-cysteine was dissolved in a PHA-P formulation to 1.0-50 mM. Due to its lower water solubility, melatonin stock solution at 200 mM was first prepared in 100% ethyl alcohol. The stocks were then added into the PHA-P formulation to make final concentrations from 0.2-10 mM. After the E-Beam treatment, potencies of PHA-P formulations were tested with whole blood samples and mitogenic activity was determined using QuantiFERON® ELISA (QIAGEN, Inc., Germantown, Md.) according to the manufacturer's instructions.

whole blood samples [7] = assay: as above; type: cell-based, human; details: E-Beam 0.0 kGy; additive 5.0 mM; vs untreated control without additives; 6 donors
whole blood samples [8] = assay: Storage stability of mitogenic activity of radiation sterilized spray-dried PHA tubes with or without cysteine; type: cell-based, human; details: 5.0 mM cysteine; E-Beam sterilized; subsequent time points extending beyond eight months post-production
Experimental: QuantiFERON® Mitogen Control blood collection tubes were produced with and without cysteine (5.0 mM final concentration in liquid mitogen formulation) and sterilized with E-Beam radiation. Mitogen tubes' biological (mitogenic) activities were tested over time and are presented as % potency differences of the activity of mitogen tubes formulated with cysteine compared to mitogen tubes formulated without cysteine. Each dot in the figure represents the % activity of group mean at each time point.
Mitogen (spray-dried PHA) tubes were produced and radiation sterilized as described in Example 1, comparing PHA preparations without added cysteine to PHA preparations containing 5.0 mM cysteine. The long-term storage stability of the radioprotective effect of cysteine on the mitogenic activity of spray-dried PHA was also assessed.
Following spray-drying and radiation sterilization the tubes were held for various time periods before being tested for mitogenic activity as described previously.

whole blood samples [9] = assay: Mitogenic potency of spray-dried PHA in QuantiFERON Mitogen Control blood collection tubes after radiation sterilization (IFN-γ by QuantiFERON ELISA); type: cell-based, human; details: for PHA mitogenic response, % of control (FIG. 2): control: no radioprotectant, no sterilization, 8 donors
[10] = spray-dried tubes after radiation sterilization, cysteine 5 mM where present

Compound | Protection of R848 stimulatory activity against E-beam (FIG. 6) [1] | Protective effect on R848 activity, titration of radioprotectant (FIG. 7) [1] | Protection of stimulatory activities of anti-CD3 and R848 against E-beam (FIG. 8) [2] | Protective effect on combined anti-CD3 and R848 activity, titration of radioprotectant (FIG. 9) [2] | Protection of PWM stimulatory activity against E-beam (FIG. 10) [3] | Protective effect on PWM activity, titration of radioprotectant (FIG. 11) [3] | Protection of ConA stimulatory activity against E-beam (FIG. 12) [4] | Protective effect on ConA activity, titration of radioprotectant (FIG. 13) [4] | Protection of anti-CD3 antibody stimulatory activity against E-beam (FIG. 4) [5] | Protective effect on anti-CD3 activity, titration of radioprotectant (FIG. 5) [5] | Group Mean Percentage of Mitogenic Activity (whole blood samples [6]; E-Beam 8.30 kGy) | Group Mean Percentage of Mitogenic Activity (whole blood samples [6]; E-Beam 16.7 kGy) | Group Mean Percentage of Mitogenic Activity (whole blood samples [6]; E-Beam 25.0 kGy) | Group Mean Percentage of Mitogenic Activity (whole blood samples [7]) | Concentration-dependent protection of PHA-P mitogenic activity (FIG. 1) (whole blood samples [6]) | PHA mitogenic response, % of control (FIG. 2) (whole blood samples [9]; [10]) | other results
N[C@@H](CS)C(=O)O (stereo in doubt) [L-Cysteine, 2-amino-3-sulfhydrylpropanoic acid] | retained the stimulatory activities | dose-dependent increase | preserved | dose-dependent increase | preserved | dose-dependent increase | preserved | dose-dependent increase | maintained stimulatory activities | dose-dependent increase | – | – | – | – | – | – | –
N[C@@H](CCC(=O)N[C@@H](CS)C(=O)NCC(=O)O)C(=O)O [Glutathione Reduced, γ-L-Glutamyl-L-cysteinylglycine] | retained the stimulatory activities | dose-dependent increase | preserved | dose-dependent increase | preserved | dose-dependent increase | preserved | dose-dependent increase | maintained stimulatory activities | dose-dependent increase | 53% | 23% | 10% | 116% | – | – | Group Mean Percentage of Mitogenic Activity (whole blood samples [6]; E-Beam 8.30 kGy, listed as reduced glutathione): 53%
N[C@@H](CS)C(=O)O [L-Cysteine, 2-amino-3-sulfhydrylpropanoic acid] | – | – | – | – | – | – | – | – | – | – | 68% | 43% | 26% | 99% | dose dependent protection | 72% | Group Mean Percentage of Mitogenic Activity (whole blood samples [6]; E-Beam 8.30 kGy, listed as L-cysteine): 68%; PHA mitogenic activity, % of PHA control formulation (FIG. 1) (whole blood samples [6]; additive 1.0 mM): 5.9%; PHA mitogenic activity, % of PHA control formulation (FIG. 1) (whole blood samples [6]; additive 10 mM): 38%; PHA-P Formulation Potency with Additives (whole blood samples [6]; additive 50 mM): 101%; PHA-P Formulation Potency with Additives (whole blood samples [6]; additive 50 mM, listed as cysteine): comparable to unsupplemented PHA preparations; Mitogenic activity of tubes with cysteine compared to tubes without cysteine (FIG. 3) (whole blood samples [8]): retained relatively higher levels of mitogenic activity; PHA mitogenic response, % of control (FIG. 2) (whole blood samples [9]; spray-dried tubes, cysteine 5 mM, no radiation sterilization): 94.8%
COc1ccc2[nH]cc(CCNC(C)=O)c2c1 [Melatonin, N-acetyl-5-methoxy tryptamine, reference compound] | – | – | – | – | – | – | – | – | – | – | 53% | 26% | 7.7% | 111% | dose dependent protection | – | Group Mean Percentage of Mitogenic Activity (whole blood samples [6]; E-Beam 8.30 kGy, listed as melatonin): 53%; PHA-P Formulation Potency with Additives (whole blood samples [6]; additive 10 mM): 98.6%; PHA-P Formulation Potency with Additives (whole blood samples [6]; additive 10 mM, listed as melatonin): comparable to unsupplemented PHA preparations
phytohemagglutinin [PHA] | – | – | – | – | – | – | – | – | – | – | – | – | – | – | – | 56% | Mitogenic Potency after Tx, E-Beam (whole blood samples [9]; E-beam 16.6-30 kGy, group mean of 11 donors vs same lot of tubes without treatment (100%)): about 55%

Reference: patent publication US20210260225A1, “PROTECTION OF BIOLOGICALLY ACTIVE MOLECULES DURING RADIATION STERILIZATION” (Qiagen Sciences LLC, priority 2018, published 2021)
